Results taken from PubChem BioAssay (NCI).
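Method: 48-hour compound exposure of cells in 96-well plates, five concentrations, linear interpolation of endpoints. TGI: total growth inhibition.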

Columns and labels:
Experiment in all cases: DTP human tumour cell line panel, 48 h
[1] = test system: 786-0 renal
[2] = test system: A498 renal
[3] = test system: A549 NSCLC
[4] = test system: ACHN renal
[5] = test system: BT-549 breast
[6] = test system: CAKI-1 renal
[7] = test system: CCRF-CEM leukemia
[8] = test system: COLO 205 colon
[9] = test system: DU-145 prostate
[10] = test system: EKVX NSCLC
[11] = test system: HCT-116 colon
[12] = test system: HCT-15 colon
[13] = test system: HL-60(TB) leukemia
[14] = test system: HOP-62 NSCLC
[15] = test system: HS 578T breast
[16] = test system: HT29 colon
[17] = test system: IGROV1 ovarian
[18] = test system: K-562 leukemia
[19] = test system: KM12 colon
[20] = test system: LOX IMVI melanoma
[21] = test system: M14 melanoma
[22] = test system: MCF7 breast
[23] = test system: MDA-MB-231 breast
[24] = test system: MDA-MB-435
[25] = test system: MDA-N
[26] = test system: MOLT-4 leukemia
[27] = test system: NCI-H226 lung
[28] = test system: NCI-H23 lung
[29] = test system: NCI-H522 lung
[30] = test system: NCI/ADR-RES ovarian
[31] = test system: OVCAR-3 ovarian
[32] = test system: OVCAR-4 ovarian
[33] = test system: OVCAR-5 ovarian
[34] = test system: OVCAR-8 ovarian
[35] = test system: PC-3 prostate
[36] = test system: RPMI-8226 leukemia
[37] = test system: SF-268 CNS
[38] = test system: SF-295 CNS
[39] = test system: SF-539 CNS
[40] = test system: SK-MEL-2 melanoma
[41] = test system: SK-MEL-28 melanoma
[42] = test system: SK-MEL-5 melanoma
[43] = test system: SK-OV-3 ovarian
[44] = test system: SN12C renal
[45] = test system: SNB-19 CNS
[46] = test system: SNB-75 CNS
[47] = test system: SR leukemia
[48] = test system: SW-620 colon
[49] = test system: T-47D breast
[50] = test system: TK-10 renal
[51] = test system: U251 CNS
[52] = test system: UACC-257 melanoma
[53] = test system: UACC-62 melanoma
[54] = test system: UO-31 renal
[55] = test system: NCI-H460 lung
[56] = test system: HCC-2998 colon
[57] = test system: HOP-92 NSCLC
[58] = test system: RXF 393 renal

## CC(O)(CCCCCl)c1nc2ccccc2s1 (stereo not given)
[1]
  TGI: > 100 µM
[2]
  TGI: > 100 µM
[3]
  TGI: > 100 µM
[4]
  TGI: > 100 µM
[5]
  TGI: > 100 µM
[6]
  TGI: > 100 µM
[7]
  TGI: > 100 µM
[8]
  TGI: > 100 µM
[9]
  TGI: > 100 µM
[10]
  TGI: > 100 µM
[11]
  TGI: > 100 µM
[12]
  TGI: > 100 µM
[13]
  TGI: > 100 µM
[14]
  TGI: > 100 µM
[15]
  TGI: > 100 µM
[16]
  TGI: > 100 µM
[17]
  TGI: > 100 µM
[18]
  TGI: > 100 µM
[19]
  TGI: > 100 µM
[20]
  TGI: > 100 µM
[21]
  TGI: > 100 µM
[22]
  TGI: > 100 µM
[23]
  TGI: > 100 µM
[24]
  TGI: > 100 µM
[25]
  TGI: > 100 µM
[26]
  TGI: > 100 µM
[27]
  TGI: > 100 µM
[28]
  TGI: > 100 µM
[29]
  TGI: > 100 µM
[30]
  TGI: > 100 µM
[31]
  TGI: > 100 µM
[32]
  TGI: > 100 µM
[33]
  TGI: > 100 µM
[34]
  TGI: > 100 µM
[35]
  TGI: > 100 µM
[36]
  TGI: > 100 µM
[37]
  TGI: > 100 µM
[38]
  TGI: > 100 µM
[39]
  TGI: > 100 µM
[40]
  TGI: > 100 µM
[41]
  TGI: > 100 µM
[42]
  TGI: > 100 µM
[43]
  TGI: > 100 µM
[44]
  TGI: > 100 µM
[45]
  TGI: > 100 µM
[46]
  TGI: > 100 µM
[47]
  TGI: > 100 µM
[48]
  TGI: > 100 µM
[49]
  TGI: > 100 µM
[50]
  TGI: > 100 µM
[51]
  TGI: > 100 µM
[52]
  TGI: > 100 µM
[53]
  TGI: > 100 µM
[54]
  TGI: > 100 µM

## Cn1c(=O)c2c(ncn2Cc2ccc(O)c([N+](=O)[O-])c2)n(C)c1=O
[1]
  TGI: > 100 µM
[2]
  TGI: > 100 µM
[3]
  TGI: > 100 µM
[4]
  TGI: > 100 µM
[5]
  TGI: > 100 µM
[6]
  TGI: > 100 µM
[7]
  TGI: > 100 µM
[8]
  TGI: > 100 µM
[9]
  TGI: > 100 µM
[10]
  TGI: > 100 µM
[11]
  TGI: > 100 µM
[12]
  TGI: > 100 µM
[13]
  TGI: > 100 µM
[14]
  TGI: > 100 µM
[15]
  TGI: > 100 µM
[16]
  TGI: > 100 µM
[17]
  TGI: > 100 µM
[18]
  TGI: > 100 µM
[19]
  TGI: > 100 µM
[20]
  TGI: > 100 µM
[21]
  TGI: > 100 µM
[22]
  TGI: > 100 µM
[23]
  TGI: > 100 µM
[24]
  TGI: > 100 µM
[25]
  TGI: > 100 µM
[26]
  TGI: > 100 µM
[27]
  TGI: > 100 µM
[28]
  TGI: > 100 µM
[55]
  TGI: > 100 µM
[29]
  TGI: > 100 µM
[30]
  TGI: > 100 µM
[31]
  TGI: > 100 µM
[32]
  TGI: > 100 µM
[33]
  TGI: > 100 µM
[34]
  TGI: > 100 µM
[35]
  TGI: > 100 µM
[36]
  TGI: > 100 µM
[37]
  TGI: > 100 µM
[38]
  TGI: > 100 µM
[39]
  TGI: > 100 µM
[40]
  TGI: > 100 µM
[41]
  TGI: > 100 µM
[42]
  TGI: > 100 µM
[43]
  TGI: > 100 µM
[44]
  TGI: > 100 µM
[45]
  TGI: > 100 µM
[46]
  TGI: > 100 µM
[47]
  TGI: > 100 µM
[48]
  TGI: > 100 µM
[49]
  TGI: > 100 µM
[50]
  TGI: > 100 µM
[51]
  TGI: > 100 µM
[52]
  TGI: > 100 µM
[53]
  TGI: > 100 µM
[54]
  TGI: > 100 µM

## O=C1OC(=O)C2=C1C(c1cccs1)C=C(c1cccnc1)N2c1ccncc1 (stereo not given)
[1]
  TGI: 32.9 µM
[2]
  TGI: 51.5 µM
[3]
  TGI: 40.8 µM
[4]
  TGI: 30.1 µM
[5]
  TGI: 36.1 µM
[6]
  TGI: 29.7 µM
[7]
  TGI: 50 µM
[8]
  TGI: 31.8 µM
[9]
  TGI: 30.2 µM
[10]
  TGI: 31.4 µM
[56]
  TGI: 27.1 µM
[11]
  TGI: 27.3 µM
[12]
  TGI: 30.1 µM
[13]
  TGI: 64.4 µM
[14]
  TGI: 41.7 µM
[57]
  TGI: 27.1 µM
[15]
  TGI: 71.4 µM
[16]
  TGI: 30.4 µM
[17]
  TGI: 29.3 µM
[18]
  TGI: 84.6 µM
[19]
  TGI: 26.1 µM
[20]
  TGI: 27 µM
[21]
  TGI: 27 µM
[23]
  TGI: 39.6 µM
[24]
  TGI: 49.9 µM
[25]
  TGI: 33.9 µM
[26]
  TGI: 73.8 µM
[27]
  TGI: 56.8 µM
[28]
  TGI: 34.7 µM
[55]
  TGI: 32.1 µM
[29]
  TGI: 29.4 µM
[30]
  TGI: 82.3 µM
[31]
  TGI: 29.3 µM
[32]
  TGI: 36 µM
[33]
  TGI: 28.5 µM
[34]
  TGI: 48.7 µM
[35]
  TGI: 29.5 µM
[36]
  TGI: 60.2 µM
[58]
  TGI: 34.5 µM
[37]
  TGI: 48.2 µM
[38]
  TGI: 35.3 µM
[40]
  TGI: 32.5 µM
[41]
  TGI: 75.2 µM
[42]
  TGI: 40.2 µM
[43]
  TGI: 68.5 µM
[44]
  TGI: 32.9 µM
[45]
  TGI: 38.9 µM
[46]
  TGI: 35.8 µM
[47]
  TGI: 8.73 µM
[48]
  TGI: 58.1 µM
[49]
  TGI: 37 µM
[50]
  TGI: 31.6 µM
[51]
  TGI: 35.4 µM
[52]
  TGI: 24.7 µM
[53]
  TGI: 37.3 µM
[54]
  TGI: 30.3 µM
